Active and inactive are the calls of the source. No cut-off for these calls is given here.
What was measured:
Type in all cases: functional
NCI-H322M = test: Cytotoxicity against human NCI-H322M cells assessed as growth inhibition at 10 uM after 48 hrs by SRB assay relative to control; settings: read-out: GI
SR = test: Cytotoxicity against human SR cells assessed as growth inhibition at 10 uM after 48 hrs by SRB assay relative to control; settings: read-out: GI
HL-60(TB) = test: Cytotoxicity against human HL-60(TB) cells assessed as growth inhibition at 10 uM after 48 hrs by SRB assay relative to control; settings: HL-60, 48 h, read-out: GI
HCT-15 = test: Cytotoxicity against human HCT15 cells assessed as growth inhibition at 10 uM after 48 hrs by SRB assay relative to control; settings: HCT-15, 48 h, read-out: GI
OVCAR-3 = test: Cytotoxicity against human OVCAR3 cells assessed as growth inhibition at 10 uM after 48 hrs by SRB assay relative to control; settings: OVCAR-3, 48 h, read-out: GI
SW-620 = test: Cytotoxicity against human SW620 cells assessed as growth inhibition at 10 uM after 48 hrs by SRB assay relative to control; settings: SW-620, 48 h, read-out: GI
CCRF-CEM = test: Cytotoxicity against human CCRF-CEM cells assessed as growth inhibition at 10 uM after 48 hrs by SRB assay relative to control; settings: read-out: GI
HOP-62 = test: Cytotoxicity against human HOP62 cells assessed as growth inhibition at 10 uM after 48 hrs by SRB assay relative to control; settings: HOP-62, 48 h, read-out: GI
K562 = test: Cytotoxicity against human K562 cells assessed as growth inhibition at 10 uM after 48 hrs by SRB assay relative to control; settings: K562, 48 h, read-out: GI
A549 = test: Cytotoxicity against human A549 cells assessed as growth inhibition at 10 uM after 48 hrs by SRB assay relative to control; settings: A549, 48 h, read-out: GI
HOP-92 = test: Cytotoxicity against human HOP92 cells assessed as growth inhibition at 10 uM after 48 hrs by SRB assay relative to control; settings: HOP-92, 48 h, read-out: GI
DU-145 = test: Cytotoxicity against human DU145 cells assessed as growth inhibition at 10 uM after 48 hrs by SRB assay relative to control; settings: DU-145, 48 h, read-out: GI
NCI-H23 = test: Cytotoxicity against human NCI-H23 cells assessed as growth inhibition at 10 uM after 48 hrs by SRB assay relative to control; settings: NCI-H23, 48 h, read-out: GI
M14 = test: Cytotoxicity against human M14 cells assessed as growth inhibition at 10 uM after 48 hrs by SRB assay relative to control; settings: M14, 48 h, read-out: GI
Hs-578T = test: Cytotoxicity against human Hs578T cells assessed as growth inhibition at 10 uM after 48 hrs by SRB assay relative to control; settings: for inhibition of growth at 10 µM: read-out: GI
HCC 2998 = test: Cytotoxicity against human HCC2998 cells assessed as growth inhibition at 10 uM after 48 hrs by SRB assay relative to control; settings: for inhibition of growth at 10 µM: HCC 2998, 48 h, read-out: GI
Malme-3M = test: Cytotoxicity against human MALME-3M cells assessed as growth inhibition at 10 uM after 48 hrs by SRB assay relative to control; settings: read-out: GI
SK-OV-3 = test: Cytotoxicity against human SKOV3 cells assessed as growth inhibition at 10 uM after 48 hrs by SRB assay relative to control; settings: SK-OV-3, 48 h, read-out: GI
OVCAR-8 = test: Cytotoxicity against human OVCAR8 cells assessed as growth inhibition at 10 uM after 48 hrs by SRB assay relative to control; settings: OVCAR-8, 48 h, read-out: GI
NCI-H226 = test: Cytotoxicity against human NCI-H226 cells assessed as growth inhibition at 10 uM after 48 hrs by SRB assay relative to control; settings: NCI-H226, 48 h, read-out: GI
SK-MEL-2 = test: Cytotoxicity against human SK-MEL-2 cells assessed as growth inhibition at 10 uM after 48 hrs by SRB assay relative to control; settings: SK-MEL-2, 48 h, read-out: GI
SF-268 = test: Cytotoxicity against human SF268 cells assessed as growth inhibition at 10 uM after 48 hrs by SRB assay relative to control; settings: SF-268, 48 h, read-out: GI
CAKI-1 = test: Cytotoxicity against human Caki1 cells assessed as growth inhibition at 10 uM after 48 hrs by SRB assay relative to control; settings: CAKI-1, 48 h, read-out: GI
SF-295 = test: Cytotoxicity against human SF295 cells assessed as growth inhibition at 10 uM after 48 hrs by SRB assay relative to control; settings: SF-295, 48 h, read-out: GI
A498 = test: Cytotoxicity against human A498 cells assessed as growth inhibition at 10 uM after 48 hrs by SRB assay relative to control; settings: for inhibition of growth at 10 µM: A498, 48 h, read-out: GI
PC-3 = test: Cytotoxicity against human PC3 cells assessed as growth inhibition at 10 uM after 48 hrs by SRB assay relative to control; settings: PC-3, 48 h, read-out: GI
BT-549 = test: Cytotoxicity against human BT549 cells assessed as growth inhibition at 10 uM after 48 hrs by SRB assay relative to control; settings: BT-549, 48 h, read-out: GI
OVCAR-5 = test: Cytotoxicity against human OVCAR5 cells assessed as growth inhibition at 10 uM after 48 hrs by SRB assay relative to control; settings: OVCAR-5, 48 h, read-out: GI
UACC-257 = test: Cytotoxicity against human UACC257 cells assessed as growth inhibition at 10 uM after 48 hrs by SRB assay relative to control; settings: UACC-257, 48 h, read-out: GI
MDA-MB-468 = test: Cytotoxicity against human MDA-MB-468 cells assessed as growth inhibition at 10 uM after 48 hrs by SRB assay relative to control; settings: MDA-MB-468, 48 h, read-out: GI
SNB-75 = test: Cytotoxicity against human SNB75 cells assessed as growth inhibition at 10 uM after 48 hrs by SRB assay relative to control; settings: SNB-75, 48 h, read-out: GI
IGROV-1 = test: Cytotoxicity against human IGROV1 cells assessed as growth inhibition at 10 uM after 48 hrs by SRB assay relative to control; settings: IGROV-1, 48 h, read-out: GI
RPMI-8226 = test: Cytotoxicity against human RPMI8226 cells assessed as growth inhibition at 10 uM after 48 hrs by SRB assay relative to control; settings: RPMI-8226, 48 h, read-out: GI
KM12 = test: Cytotoxicity against human KM12 cells assessed as growth inhibition at 10 uM after 48 hrs by SRB assay relative to control; settings: KM12, 48 h, read-out: GI
U-251 = test: Cytotoxicity against human U251 cells assessed as growth inhibition at 10 uM after 48 hrs by SRB assay relative to control; settings: U-251, 48 h, read-out: GI

SMILES | inhibition of growth at 10 µM (NCI-H322M) | inhibition of growth at 10 µM (HL-60(TB)) | inhibition of growth at 10 µM (HCT-15) | inhibition of growth at 10 µM (OVCAR-3) | inhibition of growth at 10 µM (SW-620) | inhibition of growth at 10 µM (CCRF-CEM) | inhibition of growth at 10 µM (HOP-62) | inhibition of growth at 10 µM (K562) | inhibition of growth at 10 µM (A549) | inhibition of growth at 10 µM (HOP-92) | inhibition of growth at 10 µM (DU-145) | inhibition of growth at 10 µM (NCI-H23) | inhibition of growth at 10 µM (Malme-3M) | inhibition of growth at 10 µM (SK-OV-3) | inhibition of growth at 10 µM (NCI-H226) | inhibition of growth at 10 µM (SK-MEL-2) | inhibition of growth at 10 µM (SF-268) | inhibition of growth at 10 µM (CAKI-1) | inhibition of growth at 10 µM (SF-295) | inhibition of growth at 10 µM (PC-3) | other results
O=c1oc2cc(Br)ccc2cc1-c1nc2ccccc2[nH]1 | < 20% | < 20% | < 20% | < 20% | < 20% | < 20% | < 20% | < 20% | < 20% | 20.1% | 23.6% | < 20% | < 20% | < 20% | < 20% | < 20% | < 20% | < 20% | < 20% | < 20% | inhibition of growth at 10 µM (SR): 21.5%; inhibition of growth at 10 µM (M14): < 20%; inhibition of growth at 10 µM (Hs-578T): 25.1%; inhibition of growth at 10 µM (HCC 2998): < 20%; inhibition of growth at 10 µM (OVCAR-8): < 20%; inhibition of growth at 10 µM (A498): < 20%; inhibition of growth at 10 µM (BT-549): < 20%; inhibition of growth at 10 µM (OVCAR-5): < 20%; inhibition of growth at 10 µM (UACC-257): < 20%; inhibition of growth at 10 µM (MDA-MB-468): < 20%; inhibition of growth at 10 µM (SNB-75): 22.9%; inhibition of growth at 10 µM (IGROV-1): < 20%; inhibition of growth at 10 µM (RPMI-8226): < 20%; inhibition of growth at 10 µM (KM12): < 20%; inhibition of growth at 10 µM (U-251): < 20%
O=c1oc2cc(NCCN3CCOCC3)ccc2cc1-c1nc2ccccc2[nH]1 | < 20% | < 20% | < 20% | < 20% | < 20% | < 20% | < 20% | < 20% | < 20% | 23.3% | < 20% | < 20% | < 20% | < 20% | < 20% | < 20% | < 20% | < 20% | < 20% | < 20% | inhibition of growth at 10 µM (M14): < 20%; inhibition of growth at 10 µM (Hs-578T): < 20%; inhibition of growth at 10 µM (HCC 2998): < 20%; inhibition of growth at 10 µM (OVCAR-8): < 20%; inhibition of growth at 10 µM (A498): < 20%; inhibition of growth at 10 µM (BT-549): < 20%; inhibition of growth at 10 µM (OVCAR-5): < 20%; inhibition of growth at 10 µM (UACC-257): < 20%; inhibition of growth at 10 µM (MDA-MB-468): < 20%; inhibition of growth at 10 µM (SNB-75): 22.9%; inhibition of growth at 10 µM (IGROV-1): < 20%; inhibition of growth at 10 µM (RPMI-8226): < 20%; inhibition of growth at 10 µM (KM12): < 20%; inhibition of growth at 10 µM (U-251): < 20%
NCCNc1ccc2cc(-c3nc4ccccc4[nH]3)c(=O)oc2c1 | < 20% | < 20% | 20.6% | < 20% | < 20% | < 20% | < 20% | < 20% | < 20% | < 20% | < 20% | < 20% | < 20% | < 20% | < 20% | < 20% | < 20% | < 20% | < 20% | 20.3% | inhibition of growth at 10 µM (SR): < 20%; inhibition of growth at 10 µM (M14): < 20%; inhibition of growth at 10 µM (Hs-578T): < 20%; inhibition of growth at 10 µM (HCC 2998): < 20%; inhibition of growth at 10 µM (OVCAR-8): < 20%; inhibition of growth at 10 µM (A498): < 20%; inhibition of growth at 10 µM (BT-549): < 20%; inhibition of growth at 10 µM (OVCAR-5): < 20%; inhibition of growth at 10 µM (UACC-257): < 20%; inhibition of growth at 10 µM (MDA-MB-468): < 20%; inhibition of growth at 10 µM (SNB-75): < 20%; inhibition of growth at 10 µM (IGROV-1): < 20%; inhibition of growth at 10 µM (KM12): < 20%; inhibition of growth at 10 µM (U-251): < 20%
O=c1[nH]cc(F)c(=O)[nH]1 [FLUOROURACIL] | 59.5% | 47.9% | 26.5% | 47.4% | < 20% | 57.1% | 47.8% | 42.3% | 34.2% | 50.6% | 35.5% | 39% | 58.2% | 77.5% | 69.5% | 95.5% | 59% | 39.4% | 69% | 58.2% | inhibition of growth at 10 µM (SR): 24.8%; growth inhibition (GI) (Hs-578T): Active; growth inhibition (GI) (HCC 2998): Active; growth inhibition (GI) (A498): Active; inhibition of growth at 10 µM (BT-549): 37.8%; inhibition of growth at 10 µM (OVCAR-5): 44.3%; inhibition of growth at 10 µM (UACC-257): 33.7%; inhibition of growth at 10 µM (SNB-75): 65.9%; inhibition of growth at 10 µM (IGROV-1): 51.2%; inhibition of growth at 10 µM (RPMI-8226): 41.4%; inhibition of growth at 10 µM (KM12): 40.7%; inhibition of growth at 10 µM (U-251): 50.3%

Reference: ChEMBL document CHEMBL2396528, “Synthesis of new conjugated coumarin-benzimidazole hybrids and their anticancer activity” (2013)
